Data published in patent EP0233105A1 (priority 1986, dated 1987).
≈ marks a conversion by molar mass, not a printed value.

What was measured:
[1] = test system: virus (Polio type I); assay: microbe, parasite or virus in culture; format: cell-based; details: for EC90 / EC99: Vero; for EC90: read-out: DE90; for EC99: read-out: DE 99; for IT90: therapeutic index = DL50 divided by DE90; for IT99: therapeutic index = DL50 divided by DE99
[2] = Lethal dose 50% (inhibition of growth of normal cells); format: cell-based; details: monkey; concentration inhibiting 50% of growth of normal VERO cells; no unit in table, test concentrations given in microgrammes/ml; read-out: DL50 (the source's name)
Experimental: On a par ailleurs déterminé la dose léthale 50% (DL50) la dose efficace 90% et 99% (DE90 et DE99) et l'indice thérapeutique 90 et 99 (IT90 et IT99) en utilisant les méthodes suivantes :
Les composés ont été préparés à la dose 1 mg/ml dans unvolume maximal de 0,1 ml de diméthyl- sulfoxyde et addition jusqu'à 12 ml d'un milieu de maintenance M-2. Les dilutions ont été effectuées avec le milieu de maintenance M-2.
La DL50 est la concentration à laquelle 50% de la croissance des cellules normales est inhibée. Pour cette détermination on a utilisé 5.10^5 cellules VERO en suspension dans 10 ml de milieu E199 additionné de 6% de sérum de veau (CS) et de gentamycine(20 microgrammes/ml). Les composés ont été ajoutés pour obtenir des concentrations finales de 200;100;-75;50;25;10;5;3;2;1;0,1 et 0,01 microgrammes/ml.

In the case of `COc1ccc(-c2oc3cc(O)c(OC)c(O)c3c(=O)c2OC)cc1` [3,4',6-triméthoxy-5,7-dihydroxyflavone], the EC90 [1] is reported as 1 µg/mL (≈ 2.9 µM), the EC99 [1] is reported as 10 µg/mL and the IT90 [1] is reported as 50. It also gave an IT99 [1] of 5 and a CC50 [2] of 50 µg/mL (≈ 145 µM).
Molecule `COc1c(-c2ccc(O)cc2)oc2cc(Cl)ccc2c1=O` [3-méthoxy-4'-hydroxy-7-chloroflavone] has an EC90 [1] of 5 µg/mL (≈ 16.5 µM), an EC99 [1] of 7 µg/mL and an IT90 [1] of 20. The IT99 [1] was 14,3 and the CC50 [2] was 100 µg/mL (≈ 330 µM).
Work on `COc1ccc(-c2oc3cc(OC)c(OC)c(OC)c3c(=O)c2OC)cc1OC` [3,3',4',5,6,7-hexaméthoxyflavone] yielded an EC90 [1] of 100 µg/mL (≈ 249 µM), an EC99 [1] of 200 µg/mL and an IT90 [1] of 2. The IT99 [1] was 1 and the CC50 [2] was 200 µg/mL (≈ 497 µM).
Work on `COc1ccc(-c2oc3c(OC)c(OC)c(OC)c(O)c3c(=O)c2OC)cc1OC` [3,3',4',6,7,8-hexaméthoxy-5-hydroxyflavone] yielded an EC90 [1] of 20 µg/mL (≈ 47.8 µM), an EC99 [1] of 25 µg/mL and an IT90 [1] of 10. It also gave an IT99 [1] of 8 and a CC50 [2] of 200 µg/mL (≈ 478 µM).
For `COc1c(-c2ccc(O)cc2)oc2cc(F)ccc2c1=O` [3-méthoxy-4'-hydroxy-7-fluoroflavone], the EC90 [1] was 1 µg/mL (≈ 3.49 µM), the EC99 [1] was 6 µg/mL and the IT90 [1] was 20. The IT99 [1] was 3,2 and the CC50 [2] was 20 µg/mL (≈ 69.9 µM).
In the case of `COc1ccc(-c2oc3c(OC)c(OC)c(OC)c(OC)c3c(=O)c2OC)cc1OC` [3,3',4',5,6,7,8-heptaméthoxyflavone], the EC90 [1] is reported as 20 µg/mL (≈ 46.3 µM), the EC99 [1] is reported as 25 µg/mL and the IT90 [1] is reported as 10. For the same molecule, the IT99 [1] was 8 and the CC50 [2] was 200 µg/mL (≈ 463 µM).
In the case of `COc1c(-c2ccc(O)cc2)oc2ccccc2c1=O` [3-méthoxy-4'-hydroxyflavone], the EC90 [1] is reported as 3 µg/mL (≈ 11.2 µM), the EC99 [1] is reported as 6 µg/mL and the IT90 [1] is reported as 3,3. It also gave an IT99 [1] of 1.66 and a CC50 [2] of 10 µg/mL (≈ 37.3 µM).
In the case of `COc1c(-c2ccc(OCc3ccccc3)cc2)oc2ccccc2c1=O` [3-méthoxy-4'-benzyloxyflavone], the EC90 [1] is reported as 30 µg/mL (≈ 83.7 µM), the EC99 [1] is reported as 100 µg/mL and the IT90 [1] is reported as 3,3. For the same molecule, the IT99 [1] was 1 and the CC50 [2] was 100 µg/mL (≈ 279 µM).
`COc1ccc(-c2oc3ccc(OC)cc3c(=O)c2OC)cc1` [3,4',6-triméthoxyflavone] gave an EC90 [1] of 2 µg/mL (≈ 6.4 µM), an EC99 [1] of 50 µg/mL and an IT90 [1] of 50. The IT99 [1] was 2 and the CC50 [2] was 100 µg/mL (≈ 320 µM).
`COc1c(-c2ccc(O)cc2)oc2ccc(Cl)cc2c1=O` [3-méthoxy-4'-hydroxy-6-chloroflavone] showed an EC90 [1] of 2 µg/mL (≈ 6.61 µM), an EC99 [1] of 6 µg/mL and an IT90 [1] of 50. It also gave an IT99 [1] of 17 and a CC50 [2] of 100 µg/mL (≈ 330 µM).
`COc1c(-c2ccc(O)cc2)oc2cccc(OC)c2c1=O` [3,5-diméthoxy-4'-hydroxyflavone] showed an EC90 [1] of 5 µg/mL (≈ 16.8 µM), an EC99 [1] of 10 µg/mL and an IT90 [1] of 30. The IT99 [1] was 15 and the CC50 [2] was 150 µg/mL (≈ 503 µM).
With `COc1c(-c2ccc(O)cc2)oc2cc(C)ccc2c1=O` [3-méthoxy-4'-hydroxy-7-méthylflavone] the EC90 [1] was 0.5 µg/mL (≈ 1.77 µM), the EC99 [1] was 2 µg/mL and the IT90 [1] was 50. The IT99 [1] was 12,5 and the CC50 [2] was 25 µg/mL (≈ 88.6 µM).
Work on `COc1c(-c2ccc(O)cc2)oc2ccc(C)cc2c1=O` [3-méthoxy-4'-hydroxy-6-methylflavone] yielded an EC90 [1] of 1 µg/mL (≈ 3.54 µM), an EC99 [1] of 5 µg/mL and an IT90 [1] of 75. For the same molecule, the IT99 [1] was 15 and the CC50 [2] was 75 µg/mL (≈ 266 µM).
Molecule `COc1cc2oc(-c3ccc(O)cc3)c(OC)c(=O)c2c(O)c1OC` [3,6,7-triméthoxy-4',5-dihydroxyflavone] has an EC90 [1] of 0.5 µg/mL (≈ 1.45 µM), an EC99 [1] of 5 µg/mL and an IT90 [1] of 200. It also gave an IT99 [1] of 20 and a CC50 [2] of 100 µg/mL (≈ 290 µM).
Work on `COc1c(-c2ccc(O)cc2)oc2ccc(O)cc2c1=O` [3-méthoxy-4',6-dihydroxyflavone] yielded an EC90 [1] of 0.5 µg/mL (≈ 1.76 µM), an EC99 [1] of 2 µg/mL and an IT90 [1] of 6. For the same molecule, the IT99 [1] was 1,5 and the CC50 [2] was 3 µg/mL (≈ 10.6 µM).
For `COc1c(-c2ccc(O)cc2)oc2c(OC)cccc2c1=O` [3,8-diméthoxy-4'-hydroxyflavone], the EC90 [1] was 10 µg/mL (≈ 33.5 µM), the EC99 [1] was 20 µg/mL and the IT90 [1] was 2,5. The IT99 [1] was 1,2 and the CC50 [2] was 25 µg/mL (≈ 83.8 µM).
With `COc1c(O)cc2oc(-c3ccc(O)cc3)c(OC)c(=O)c2c1O` [3,6-diméthoxy-4',5,7-trihydroxyflavone] the EC90 [1] was 0.5 µg/mL (≈ 1.51 µM), the EC99 [1] was 1 µg/mL and the IT90 [1] was 40. It also gave an IT99 [1] of 20 and a CC50 [2] of 20 µg/mL (≈ 60.6 µM).
For `COc1ccc(-c2oc3ccc(O)cc3c(=O)c2OC)cc1` [3,4'-diméthoxy-6-hydroxyflavone], the EC90 [1] was 100 µg/mL (≈ 335 µM), the EC99 [1] was 200 µg/mL and the IT90 [1] was 2. For the same molecule, the IT99 [1] was 1 and the CC50 [2] was 200 µg/mL (≈ 670 µM).
Molecule `COc1ccc2oc(-c3ccc(O)cc3)c(OC)c(=O)c2c1` [3,6-diméthoxy-4'-hydroxyflavone] has an EC90 [1] of 7 µg/mL (≈ 23.5 µM), an EC99 [1] of 25 µg/mL and an IT90 [1] of 29. For the same molecule, the IT99 [1] was 8 and the CC50 [2] was 200 µg/mL (≈ 670 µM).
With `COc1c(-c2ccc(Cl)cc2)oc2cc(C)ccc2c1=O` [3-méthoxy-4'-chloro-7-méthylflavone] the EC90 [1] was 10 µg/mL (≈ 33.3 µM), the EC99 [1] was 20 µg/mL and the IT90 [1] was 1. For the same molecule, the IT99 [1] was 0.5 and the CC50 [2] was 10 µg/mL (≈ 33.3 µM).
With `COc1ccc2c(=O)c(OC)c(-c3ccc(O)cc3)oc2c1` [3,7-diméthoxy-4'-hydroxyflavone] the EC90 [1] was 1 µg/mL (≈ 3.35 µM), the EC99 [1] was 5 µg/mL and the IT90 [1] was 25. The IT99 [1] was 5 and the CC50 [2] was 25 µg/mL (≈ 83.8 µM).
